Laboratory results taken from patent publication US6677501B2, “P2X7 receptor-deficient mice and uses thereof” (Pfizer, Inc., priority 2000, dated 2004).
Values joined by “and” are separate entries in the source; they are usually repeats but may differ in a detail not shown here. Equal entries are not always repeated.

Assays:
[1] = system: mouse peritoneal macrophages; assay: YoPro Yellow uptake by peritoneal macrophages; format: cell-based; settings: 5 mM ATP
Description: Peritoneal macrophages were washed with Isotonic Medium (15 mM Hepes, pH 7.2, 135 mM NaCl, 5 mM KCl, […], […]) by centrifugation and the resulting cell pellet was suspended in Isotonic Medium to achieve a final cell concentration of 1×10^6 cells/ml. Fifty μl of this cell suspension then was placed into wells of a Microfluor “B” U-bottom plate (Dynatech, Chantilly, Va.), and 50 μl of 2 μM YoPro Yellow (Molecular Probes, Eugene, Ore.); the fluorescent dye was dissolved in Isotonic Medium. Wells were then adjusted to 5 mM ATP or 0.0075% saponin by addition of concentrated stock solutions of these agents. Fluorescence was monitored as a function of time at 37° C., excitation, 450 nm/emission, 530 nm.

[2] = system: LPS-activated peritoneal macrophages; assay: Stimulus-induced IL-1β posttranslational processing in vitro; format: cell-based, mouse; settings: 35S-methionine-labeled, 30 min, 5 mM ATP or 20 μM nigericin
Description: (§1) Macrophages from wild type and P2×7^−/− animals (1×10^6 cells seeded per well of 6-well cluster plates) were stimulated with 1 μg/ml E. coli LPS (Serotype 055 B5 obtained from Sigma; St. Louis, Mo.) for 75-90 minutes and then rinsed with 2 ml of methionine-free RPMI medium containing 100 units/mi penicillin, 100 μg/ml streptomycin, 1% dialyzed FBS, 1 μg/ml LPS, and 25 mM Hepes, pH 7.3 (Pulse Medium). One ml of Pulse Medium containing 83 μCi/Ml of ^35S-methionine (Amersham Corp, Chicago, Ill.) then was added to each well, and the cells were labeled at 37° C. for 1 hour. These labeled cells subsequently were rinsed twice with RPMI 1640 medium containing 100 units/mil penicillin, 100 μg/ml streptomycin, 1% FBS, 2 mM glutamine, 1 μg/ml LPS and 25 mM Hepes, pH 7.3 (Chase Medium). One ml of Chase Medium (containing no effector (control) or containing 05 mM ATP, or 20 mM nigericin) was then added to each well, and the cells were chased at 37° C. for 30 minutes. Media were harvested and clarified by centrifugation (6000×g for 5 minutes) to remove cells and/or cell debris. Cell monolayers were suspended in 1 ml of a lysis buffer composed of 1% Triton X-100, 150 mM NaCl, 25 mM Hepes, pH 7, 0.1 mM PMSF, 1 mg/ml ovalbumin, 1 mM iodoacetic acid, 1 μg/ml pepstatin, and 1 μg/ml leupeptin. Clarified media samples were adjusted to the same final Triton X-100 and protease inhibitor concentrations by addition of aliquots from concentrated stocks of these reagents. After a 30 minute incubation on ice, all samples were clarified by centrifugation at 45,000 rpm for 30 minutes in a TLA-45 rotor (Beckman, Palo Alto, Calif.), the resulting supernatants were recovered, and IL-1β was immunoprecipitated from these samples using a goat anti-murine IL-1β serum obtained from Dr. Ivan Otterness (Pfizer Central Research, Groton, Conn.). Immnunoprecipitates were fractionated by SDS gel electrophoresis, the quantity of radioactivity associated with individual IL-1β polypeptide species was determined by scanning dried gels with a Phosphoimager.

[3] = system: LPS-activated peritoneal macrophages; assay: LDH release from LPS-activated macrophage cultures; format: cell-based, mouse; settings: 30 min
Description: FIG. 6B is a graphic representation showing the percentage of lactate dehydrogenase (LDH) released from the total culture associated LDH in the samples described in FIG. 6A;
as §1, with “After a 30 minute incubation on ice, all samples were clarified by centrifugation at 45,000 rpm for 30 minutes in a TLA-45 rotor (Beckman, Palo Alto, Calif.), the resulting supernatants were recovered, and IL-1β was immunoprecipitated from these samples using a goat anti-murine IL-1β serum obtained from Dr. Ivan Otterness (Pfizer Central Research, Groton, Conn.).” left out

IL-1β = assay: ATP-induced IL-1β posttranslational processing in vivo (peritoneal lavage ELISA); set-up: species or system mouse
Description: (§2) ATP-Induced IL-1β Posttranslational Processing In Vivo Groups of mice were injected intraperitoneally (ip) with 1 μg of LPS. Two hours after this LPS injection, mice were injected ip with either 30 mM ATP (adjusted to pH 7) or PBS. Mice were sacrificed 30 minutes or 120 minutes after the ATP or PBS injection and peritoneal cavities were lavaged, each with 3 ml of RPMI (5% FCS). Samples of peritoneal lavages were spun down, supernatants were collected and tested for the presence of IL-1β and IL-6 using ELISAs (Amersham Life Sciences, Arlington Heights, Va. and Endogen, Woburn, Mass., respectively).

IL-6 = assay: ATP-induced IL-6 release in LPS-primed mice (peritoneal lavage ELISA); format: in vivo, mouse; settings: for IL-6 (ng/ml), ATP Challenge, P2×7R-/-: LPS-primed P2×7R-/- mice; for IL-6 (ng/ml), ATP Challenge, P2×7R-/- / IL-6 (ng/ml), ATP Challenge, WT: ip ATP, peritoneal lavage; for IL-6 (ng/ml), ATP Challenge, WT: LPS-primed wild-type mice
Description: as §2
As noted earlier, IL-1 signaling often leads to the production of other cytokines such as IL-6 (Allen et al. (2000) J. Exp. Med. 191:859-869). […] Two hours later an injection of ATP (or PBS) was administered to promote IL-1 posttranslational processing and the mice were incubated for an additional 4 hours. Peritoneal lavages were collected at several times during the course of the experiment and analyzed for IL-6 by ELISA. […] Mice that received an initial priming injection of LPS followed by PBS yielded levels of IL-6 at 1 and 2 hours (4 to 5 ng/ml) that were elevated above those recovered from mice injected with the combination of phosphate buffered saline and ATP (FIG. 8). By 4 hours, however, IL-6 levels recovered from the LPS-PBS treated animals returned to baseline (FIG. 9).

P2×7R = settings: cited from earlier work
other P2× receptors = settings: cited from earlier work

| SMILES | YoPro Yellow fluorescence intensity ([1]; P2×7R-/- macrophages) | YoPro Yellow fluorescence intensity ([1]; wild-type macrophages) | extracellular 17 kDa IL-1β as percentage of total radiolabeled IL-1β recovered ([2]; P2×7R-/- macrophages) | extracellular 17 kDa IL-1β as percentage of total radiolabeled IL-1β recovered ([2]; wild-type macrophages) | release of lactate dehydrogenase (LDH) ([3]; wild-type macrophages) | IL-1β in peritoneal lavage after ATP challenge (IL-1β; LPS-primed mice heterozygous (+/-) for the P2×7R disruption, 30 min) | IL-1 (ng/ml), ATP Challenge, WT (IL-1β; LPS-primed wild-type mice, ip ATP, 120 min post challenge, peritoneal lavage) | IL-6 (ng/ml), ATP Challenge, P2×7R-/- (IL-6; 30 min post challenge) | IL-6 (ng/ml), ATP Challenge, P2×7R-/- (IL-6; 120 min post challenge) | IL-6 (ng/ml), ATP Challenge, WT (IL-6; 30 min post challenge) | IL-6 (ng/ml), ATP Challenge, WT (IL-6; 120 min post challenge) | peak lavage fluid IL-6 (IL-6; wild-type mice, LPS at time 0, ATP at 2 hours, 4 hour time point) | lavage fluid IL-6 (IL-6; wild-type mice, priming injection of PBS followed 2 hours later by ATP) | levels of ATP required to achieve activation (P2×7R) | ATP concentrations at which receptors activate (other P2× receptors) | release of lactate dehydrogenase (LDH) ([3]; P2×7R-/- macrophages) |
| --- | --- | --- | --- | --- | --- | --- | --- | --- | --- | --- | --- | --- | --- | --- | --- | --- |
| Nc1ncnc2c1ncn2[C@@H]1O[C@H](COP(=O)(O)OP(=O)(O)OP(=O)(O)O)[C@@H](O)[C@H]1O [ATP] | did not result in time-dependent increase in fluorescence intensity | time dependent increase in fluorescence intensity | did not release any radiolabeled IL-1β | 64% | enhanced release | A similar pattern | 0.34 ng/mL and 0.33 ± 0.08 ng/mL | 9 ± 1 ng/mL | 6 ng/mL | 8.2 ± 1.7 ng/mL | 17 ng/mL and 16.8 ± 2.3 ng/mL | > 25 ng/mL | did not contain significant levels of IL-6 at any time | > 1 mM | ≤ 100 µM |  |
| CO[C@@H]1C[C@@H](C[C@H]2CC[C@H](C)[C@H]([C@@H](C)C(=O)O)O2)O[C@]2(O[C@](C)([C@H]3CC[C@@](C)([C@@H]4O[C@@H]([C@H]5O[C@@](O)(CO)[C@H](C)C[C@@H]5C)C[C@@H]4C)O3)C[C@H]2C)[C@@H]1C [nigericin] |  |  | 74% | 66% | comparable quantities of LDH |  |  |  |  |  |  |  |  |  |  | comparable quantities of LDH |
